Experimental data taken from patent publication US5236955A, “Anti-fungal agent” (Washington University, priority 1992, dated 1993).

Tests used:
[1] = test system: a variety of fungal species, including C. albicans; conditions: Sabouraud dextrose agar; cited from earlier work
[2] = test system: C. neoformans; experiment: Growth of C. neoformans cultures (absorbance at 600 nm); assay type: cell-based, Cryptococcus neoformans; conditions: single 300 μM dose, exponential phase, 30° C., SAB, up to 24 h
Description: (§1) Panel A, survey of the effects of several oxatetradecanoic acids on the growth of C. neoformans. A culture of C. neoformans was grown at 30° C. in SAB media to midlog phase (A600 ~0.5). A single dose of fatty acid was then added to subcultures (final concentration=300 μM). EtOH(0.1%) was used as a negative control. Amphotericin B (AmB) was added (final concentraton=55 μM) as a positive control. Aliquots were withdrawn from the subcultures 0, 0.5, 2, 4, 7, 21, and 24 h after these additions and then absorbance at 600 nm was measured. All assays were done in duplicate or triplicate. A representative test is shown. Panel B, survey of the effects of oxatetradecanoic acids, dioxatetradecanoic acids and oxatridecanoic acids on the viability of C. neoformans. Fatty acid analog was added to the cultures as in Panel A. Aliquots were withdrawn 0.5, 2, 4, 7 or 8, and 24 h later and plated on SAB-agar at various dilutions to determine the number of viable organisms/ml culture. All assays were done in duplicate. Data from a representative test are expressed as the ratio of viable cells in treated cultures relative to a control culture that received 0.1% EtOH. A positive control culture received a single dose of amphotericin B (55 μM); Panel C, dose-dependent reduction in the viability of C. neoformans after addition of 4-oxatetradecanoic acid (O4) to cultures during log-phase growth at 30° C. in SAB. A single dose of the analog was given at T=0 h in the amount indicated and aliquots of the culture were withdrawn at various times to determine the number of viable cells. All assays were done in triplicate. A representative test is shown.
Saccharomyces cerevisiae strain YM2061 (MATa ura3-52 his3Δ200 ade2-101 lys2-801 met LEU2::pRY181 can1; Flick and Johnston, Mol. Cell. Biol. 10, 4757-4769 (1990), Candida albicans strain B311 (obtained from the American Type Tissue Culture, Rockville, Md.), or Cryptococcus neoformans strain L210425 (a clinical isolate that is part of the permanent culture collection of the Mycology Laboratory, Barnes Hospital, St. Louis, Mo.) were grown overnight at 30 C. The S. cerevisiae strain was incubated in YPD medium (1% bacto-yeast extract, Gibco, Long Island, N.Y.), 2% bacto-peptone (Gibco), 2% dextrose). The C. albicans and C. neoformans strains were grown in Sabouraud's media (SAB; 2% (w/v) dextrose, 1% bacto-peptone). The following morning the cultures were diluted into fresh medium to the desired density at 600 nm (early log phase), and subsequently incubated in a rotary shaker at 30° C. until an A600 =0.5 (mid log phase) was achieved. The culture was then divided into 10 ml aliquots. A single 10 μl aliquot of a stock solution of fatty acid analog (prepared in various concentrations using absolute ethanol) was added to the culture so that the final concentration of the compound was 100-500 μM (T=0). Ten microliters of ethanol alone was added to one 10 ml culture which served as the negative control. […] Cell viability was determined at each of these time points by (i) serially diluting the aliquot in 0.15M NaCl and counting cell number in a hemocytometer and (ii) plating 2-3 of the dilutions in triplicate onto plates of SAB/agar (C. albicans and C. neoformans) or YPD/agar (S. cerevisiae). […] The data were expressed as the ratio of viable cells/ml in the fatty acid analog treated subculture to the number of viable cells/ml in the negative (ethanol) control culture. […]

[3] = test system: C. neoformans; experiment: Viability of C. neoformans (viable cells relative to EtOH control culture); assay type: cell-based, Cryptococcus neoformans; conditions: 300 μM single dose; for fungicidal / fungistatic effect on C. neoformans: screening assay; for log reduction at 300 µM: Cryptococcus neoformans, relative to 0.1% EtOH control, read-out: decrease in viable cells (converted)
Description: as §1
Saccharomyces cerevisiae strain YM2061 (MATa ura3-52 his3Δ200 ade2-101 lys2-801 met LEU2::pRY181 can1; Flick and Johnston, Mol. Cell. Biol. 10, 4757-4769 (1990), Candida albicans strain B311 (obtained from the American Type Tissue Culture, Rockville, Md.), or Cryptococcus neoformans strain L210425 (a clinical isolate that is part of the permanent culture collection of the Mycology Laboratory, Barnes Hospital, St. Louis, Mo.) were grown overnight at 30 C. The S. cerevisiae strain was incubated in YPD medium (1% bacto-yeast extract, Gibco, Long Island, N.Y.), 2% bacto-peptone (Gibco), 2% dextrose). The C. albicans and C. neoformans strains were grown in Sabouraud's media (SAB; 2% (w/v) dextrose, 1% bacto-peptone). The following morning the cultures were diluted into fresh medium to the desired density at 600 nm (early log phase), and subsequently incubated in a rotary shaker at 30° C. until an A600 =0.5 (mid log phase) was achieved. The culture was then divided into 10 ml aliquots. A single 10 μl aliquot of a stock solution of fatty acid analog (prepared in various concentrations using absolute ethanol) was added to the culture so that the final concentration of the compound was 100-500 μM (T=0). Ten microliters of ethanol alone was added to one 10 ml culture which served as the negative control. Amphotericin B (AmB; in the form of Fungizone, Squibb) was added (final concentration=55 μM) to another culture which served as the positive control. At T=0 and 0.5-24 h after addition of fatty acid analog to the subcultures, an aliquot was removed for determining the density of the subculture at 600 nm. Cell viability was determined at each of these time points by (i) serially diluting the aliquot in 0.15M NaCl and counting cell number in a hemocytometer and (ii) plating 2-3 of the dilutions in triplicate onto plates of SAB/agar (C. albicans and C. neoformans) or YPD/agar (S. cerevisiae). These plates were subsequently incubated at 30° C. for 24-48 hr to allow for the growth of colonies. The data were expressed as the ratio of viable cells/ml in the fatty acid analog treated subculture to the number of viable cells/ml in the negative (ethanol) control culture.

[4] = test system: C. albicans N-myristoylproteins; experiment: Metabolic labeling of cellular N-myristoylproteins with tritiated fatty acids; assay type: cell-based; conditions: tritiated analog, 1 h, 30° C.
Description: (§2) Cells were labeled for 1 h with fatty acids of equal specific activity. Total cellular proteins were reduced, denatured and subjected to SDS-PAGE. Gels were treated overnight with 1 N hydrocylamine (pH 10) at room temperature followed by EN^3 HANCE. Fluorography was performed at -80° C. The exposure time for all gels was identical (2 weeks) as was the total amount of cellular protein added to each lane (100 μg).
(§3) Analysis of the incorporation of exogenous fatty acids into cellular proteins--Cultures of S. cerevisiae YM2061, C. albicans B311, and C. neoformans L210425 were grown overnight at 30° C. in YPD or SAB broth. In the morning, C. albicans and C. neoformans were diluted to an A600 =0.6. All cultures were subsequently shaken at 30° C. until they achieved an A600 =1.2. A 5 ml aliquot of each culture was then incubated at 30° C. with 100 μCi/ml of either [9,10(n)^3 H]myristate (NEN Research Products, Dupont, Boston, Mass.); [6,7(n)^3 H]4-oxatetradecanoate; [9,10(n)^3 H]6-oxatetradecanoate;[9,10(n)^3 H]11-oxatetradecanoate; or [10,11(n)^3 H]13-oxatetradecanoate (the final specific activity of all tritiated fatty acids=30 Ci/mmol, their final concentration=3.3 μM). The cultures were then chilled on ice for 5 min and the cells harvested by centrifugation at 4000×g for 5 min. The pellet was washed by gentle vortexing in 1 ml of phosphate buffered saline (PBS, maintained at 4° C.). The yeast cells were then pelleted by centrifugation (as above) and broken open by vortexing with 500 μm glass beads in a 200 μl solution containing 240 mM Tris-HCl, pH 6.8, 2% SDS, 0.4% β-mercaptoethanol, 0.002% bromophenol blue, and 10% glycerol. The solution was then boiled for 5 min and cellular debris was removed by centrifugation at 12,000×g for 10 min. One hundred μg [Lowry et al., J. Biol. Chem. 193, 265-275 (1951)] of lysate protein from each sample was subjected to denaturation, reduction and electrophoresis through 12% polyacrylamide gels containing 0.1% SDS [Laemmli, Nature 227, 680-685 (1970)]. Duplicate gels were incubated overnight with 1M Tris, pH 7.4, or 1N hydroxylamine, pH 10. Fluorography was performed by treating gels with EN^3 HANCE (NEN Research Products, Dupont) and, following drying, exposing them to Kodak XAR film at -80° C.

[5] = test system: C. neoformans N-myristoylproteins; experiment: as above; assay type: cell-based; conditions: tritiated analog, 1 h, 30° C.
Description: as §2, §3

[6] = test system: S. cerevisiae N-myristoylproteins; experiment: as above; assay type: cell-based; conditions: tritiated analog, 1 h, 30° C.
Description: as §2, §3

[7] = test system: HIV-1; conditions: cited from earlier work
[8] = molecular target: T1, human myristoylCoA:protein N-myristoyltransferase (NMT) (Homo sapiens, UniProt P30419); conditions: cited from earlier work
T1 sequence (P30419 1-496): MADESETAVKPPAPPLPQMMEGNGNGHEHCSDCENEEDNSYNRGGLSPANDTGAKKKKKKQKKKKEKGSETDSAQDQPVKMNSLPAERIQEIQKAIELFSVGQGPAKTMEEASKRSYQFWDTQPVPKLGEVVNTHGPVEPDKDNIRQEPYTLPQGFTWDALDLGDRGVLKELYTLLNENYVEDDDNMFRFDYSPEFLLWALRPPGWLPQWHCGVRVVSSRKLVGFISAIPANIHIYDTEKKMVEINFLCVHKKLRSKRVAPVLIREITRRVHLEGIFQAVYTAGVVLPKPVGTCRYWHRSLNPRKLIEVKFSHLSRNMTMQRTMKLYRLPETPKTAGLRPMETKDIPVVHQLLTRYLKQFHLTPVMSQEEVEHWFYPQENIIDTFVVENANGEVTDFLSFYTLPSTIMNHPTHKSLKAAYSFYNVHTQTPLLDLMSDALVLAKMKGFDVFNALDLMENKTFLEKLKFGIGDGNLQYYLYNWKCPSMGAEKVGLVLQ

[9] = test system: human acyl CoA synthetase; conditions: cited from earlier work

CCCCCCCCOCC(=O)O [3-oxaundecanoic acid, reference compound]
effect on growth of fungal species [1]: broadest spectrum and highest potency

CCCCCCCCCCCOCC(=O)O [O3, 3-oxatetradecanoic acid]
effect on growth of C. neoformans, as determined by optical density [2]: intermediate degrees of growth retardation | effect on growth of fungal species [1]: inhibited growth | fungicidal / fungistatic effect on C. neoformans [3]: fungicidal | log reduction at 300 µM [3]: 1

CCCCCCCCOCCCCC(=O)O [O6, 6-Oxatetradecanoic acid]
effect on growth of C. neoformans, as determined by optical density [2]: intermediate degrees of growth retardation | labeling of C. albicans N-myristoylproteins versus [3H]myristate [4]: barely labeled | labeling of C. neoformans N-myristoylproteins versus [3H]myristate [5]: more intense labeling of 20 and 16 kDa C. neoformans N-myristoylproteins than did myristate | labeling of S. cerevisiae N-myristoylproteins versus [3H]myristate [6]: failed to label | time needed to produce the decrease in viable cells [3]: 4 h | fungicidal / fungistatic effect on C. neoformans [3]: fungicidal | log reduction at 300 µM [3]: 1

COCCCCCCCCCCCC(=O)O [O13, 13-oxatetradecanoic acid]
HIV-1 replication ([7]; acutely and chronically infected human T-lymphocyte cell lines): inhibits HIV-1 replication | cellular toxicity at HIV-1 inhibiting doses ([7]; human T-lymphocyte cell lines): do not cause cellular toxicity | incorporation into the 55 kDa Gpal polypeptide [6]: not | labeling of the 20 kDa Arfs [6]: comparable intensity | substrate for human NMT [8]: is a substrate | substrate for human acyl CoA synthetase [9]: is a substrate | fungicidal / fungistatic effect on C. neoformans [3]: no measurable effect on the growth
